The test system of this experiment is androgen receptor (AR). Description: AR ELISA assay in LNCaP and/or VCaP cells. The class given is cell-based. The settings on record: 5 hours. The protocol: 4. AR ELISA Assay Protocol for Table 6
Compounds were evaluated in this assay in LNCaP and/or VCaP cells utilizing similar protocols. The protocols used with VCaP cells are described below. The androgen receptor ELISA assay was performed using PathScani AR Sandwich ELISA (Cell Signaling Catalog #12850) according to the following assay steps:
VCaP cells were seeded at 40,000 cells/well at a volume of 100 μL/well in VCaP assay medium [Phenol red free RPMI (Gibco Cat #11835-030); 5% Charcoal Stripped (Dextran treated) FBS (Omega Scientific, Cat #FB-04); 1% penstrep (Life Technologies, Gibco Cat #: 10378-016)] in Corning 3904 plates. The cells were incubated for a minimum of 3 days. Cells were dosed with PROTACs diluted in 0.01% DMSO and the drug treatment was allowed for 5 hours.
AR ELISA (Cell Signaling) was performed as follows: 1× Cell Signaling Cell lysis buffer was made (Catalogue #9803; comes with the kit). Media from the treated wells is aspirated, and 100 μL 1× cell lysis buffer/well is added. The cells were placed on a shaker for 10 minutes at 4° C. Twenty microliters of lysate was transferred to 100 μl of Diluent in ELISA plate (0.15 μg/ml-0.075 μg/ml). The lysate-diluent mixture was shaken for 30 minutes at 37° C. Allow mouse AR antibody, anti-mouse antibody, TMB, and STOP solution to come to room temperature. The 1× ELISA buffer included in kit was made and loaded in the reservoir. Media from the plates was discarded, the ELISA plate tapped hard on paper towel, and washed 4×200 μl ELISA wash buffer using a plate washer.
One-hundred (100) μL/well of mouse AR detection Ab was added; the plates were covered and shaken at 37° C. for 1 hour; media was discarded from the plates, the plates were tapped on a paper towel, washed 4× with 200 μL ELISA wash buffer with a plate washer.
One-hundred (100) μL/well of anti-mouse—HRP conjugated Ab (comes with the kit) was added; the plates were covered and shaken at 37° C. for 30 minutes; the TMB reagent was allowed to come to room temperature; the media was discard from the plate, the plates were tapped on paper towl, washed 4× with 200 μL of ELISA wash buffer; the plates were tapped the plates on paper towl. One-hundred (100) μL of TMB was added and the plates shaken for 2 minutes—while watching for color development. One-hundred (100) μL Stop solution was added when light blue color developed. Plates were shaken and read at 450 nm.
Progression of prostate cancer in patients treated with anti-androgen therapy usually involves one of several mechanisms of enhanced Androgen Receptor (AR) signaling, including increased intratumoral androgen synthesis, increased AR expression and AR mutations. PROTACs (PROteolysis TArgeting Chimera), which use bi-functional molecules that simultaneously bind a target of choice and an E3 ligase, cause ubiquitination via induced proximity and degradation of the targeted, pathological protein. As opposed to traditional target inhibition, which is a competitive process, degradation is a progressive process. As such, it is less susceptible to increases in endogenous ligand, target expression, or mutations in the target. Thus, this technology appears to be ideal for addressing the mechanisms of AR resistance in patients with prostate cancer. Data was analyzed and plotted using GraphPad Prism software.

Bounds are passed on as bounds.

In the case of `COc1cc(N2CCN(CC3CCN(c4ccc(C(=O)N[C@H]5CC[C@H](Oc6ccc(C#N)c(Cl)c6)CC5)nn4)CC3)CC2)cc2c1C(=O)N(C1CCC(=O)NC1=O)C2=O` (mixture of isomers) [compound 32, rac-N-((1r,4r)-4-(3-chloro-4-cyanophenoxy)cyclohexyl)-6-(4-((4-(2-(2,6-dioxopiperidin-3-yl)-7-methoxy-1,3-dioxoisoindolin-5-yl)piperazin-1-yl)methyl)piperidin-1-yl)pyridazine-3-carboxamide], the DC50 was below 1 nM.

`COc1cc(N2CCN(CC3CCN(c4ncc(C(=O)N[C@H]5C(C)(C)[C@H](Oc6ccc(C#N)c(Cl)c6)C5(C)C)cn4)CC3)CC2)cc2c1C(=O)N(C1CCC(=O)NC1=O)C2=O` (mixture of isomers) [compound 33, rac-N-((1r,3r)-3-(3-chloro-4-cyanophenoxy)-2,2,4,4-tetramethylcyclobutyl)-2-(4-((4-(2-(2,6-dioxopiperidin-3-yl)-7-methoxy-1,3-dioxoisoindolin-5-yl)piperazin-1-yl)methyl)piperidin-1-yl)pyrimidine-5-carboxamide] had a DC50 below 1 nM.

For `CC1(C)[C@H](NC(=O)c2ccc(N3CCC(CN4CCN(c5ccc6c(c5)C5(CC5)N(C5CCC(=O)NC5=O)C6=O)CC4)CC3)cc2)C(C)(C)[C@H]1Oc1ccc(C#N)c(Cl)c1` (mixture of isomers) [compound 34, rac-N-((1r,3r)-3-(3-chloro-4-cyanophenoxy)-2,2,4,4-tetramethylcyclobutyl)-4-(4-((4-(2′-(2,6-dioxopiperidin-3-yl)-3′-oxospiro[cyclopropane-1,1′-isoindolin]-6′-yl)piperazin-1-yl)methyl)piperidin-1-yl)benzamide], the “AR Dmax” value is given as “C (C < 50)”.

Regarding `CC(C)N(CC1CCN(c2cnc(C(=O)N[C@H]3CC[C@H](Oc4ccc(C#N)c(Cl)c4)CC3)cn2)CC1)[C@H]1C[C@H](Oc2ccc3c(c2)C(=O)N(C2CCC(=O)NC2=O)C32CC2)C1` (mixture of isomers) [compound 35, rac-N-((1r,4r)-4-(3-chloro-4-cyanophenoxy)cyclohexyl)-5-(4-((((1r,3r)-3-((2′-(2,6-dioxopiperidin-3-yl)-3′-oxospiro[cyclopropane-1,1′-isoindolin]-5′-yl)oxy)cyclobutyl)(isopropyl)amino)methyl)piperidin-1-yl)pyrazine-2-carboxamide], the “AR Dmax” value is “C (C < 50)”.

As for `CC(C)N(CC1CCN(c2cnc(C(=O)N[C@H]3CC[C@H](Oc4ccc(C#N)c(Cl)c4)CC3)cn2)CC1)[C@H]1C[C@H](Oc2ccc3c(c2)C2(CC2)N(C2CCC(=O)NC2=O)C3=O)C1` (mixture of isomers) [compound 36, rac-N-((1r,4r)-4-(3-chloro-4-cyanophenoxy)cyclohexyl)-5-(4-((((1r,3r)-3-((2′-(2,6-dioxopiperidin-3-yl)-3′-oxospiro[cyclopropane-1,1′-isoindolin]-6′-yl)oxy)cyclobutyl)(isopropyl)amino)methyl)piperidin-1-yl)pyrazine-2-carboxamide], the “AR Dmax” value is “C (C < 50)”.

Take `CC(C)N(CC1CCN(c2cnc(C(=O)N[C@H]3C(C)(C)[C@H](Oc4ccc(C#N)c(Cl)c4)C3(C)C)cn2)CC1)[C@H]1C[C@H](Oc2ccc3c(c2)C(=O)N(C2CCC(=O)NC2=O)C32CC2)C1` (mixture of isomers) [compound 37, rac-N-((1r,3r)-3-(3-chloro-4-cyanophenoxy)-2,2,4,4-tetramethylcyclobutyl)-5-(4-((((1r,3r)-3-((2′-(2,6-dioxopiperidin-3-yl)-3′-oxospiro[cyclopropane-1,1′-isoindolin]-5′-yl)oxy)cyclobutyl)(isopropyl)amino)methyl)piperidin-1-yl)pyrazine-2-carboxamide]: the “AR Dmax” value is given as “C (C < 50)”.

As for `CC(C)N(CC1CCN(c2cnc(C(=O)N[C@H]3C(C)(C)[C@H](Oc4ccc(C#N)c(Cl)c4)C3(C)C)cn2)CC1)[C@H]1C[C@H](Oc2ccc3c(c2)C2(CC2)N(C2CCC(=O)NC2=O)C3=O)C1` (mixture of isomers) [compound 38, rac-N-((1r,3r)-3-(3-chloro-4-cyanophenoxy)-2,2,4,4-tetramethylcyclobutyl)-5-(4-((((1r,3r)-3-((2′-(2,6-dioxopiperidin-3-yl)-3′-oxospiro[cyclopropane-1,1′-isoindolin]-6′-yl)oxy)cyclobutyl)(isopropyl)amino)methyl)piperidin-1-yl)pyrazine-2-carboxamide], the “AR Dmax” value is listed as “C (C < 50)”.

As to `CC1(C)[C@H](NC(=O)c2ccc(N3CCN(CCCCCOc4ccc5c(c4)CCN(C4CCC(=O)NC4=O)C5=O)CC3)nc2)C(C)(C)[C@H]1Oc1ccc(C#N)c(Cl)c1` (mixture of isomers) [compound 46, N-((1r,3r)-3-(3-chloro-4-cyanophenoxy)-2,2,4,4-tetramethylcyclobutyl)-6-(4-(5-(2-(2,6-dioxopiperidin-3-yl)-1-oxo-1,2,3,4-tetrahydroisoquinolin-6-yloxy)pentyl)piperazin-1-yl)nicotinamide], the “AR Dmax” value is “A (A >= 75)” and the DC50 is below 1 nM.

Regarding `CC1(C)[C@H](NC(=O)c2ccc(N3CCN(CCCCCOc4ccc5c(c4)CC(=O)N(C4CCC(=O)NC4=O)C5=O)CC3)nc2)C(C)(C)[C@H]1Oc1ccc(C#N)c(Cl)c1` (mixture of isomers) [compound 47, N-((1r,3r)-3-(3-chloro-4-cyanophenoxy)-2,2,4,4-tetramethylcyclobutyl)-6-(4-(5-((2-(2,6-dioxopiperidin-3-yl)-1,3-dioxo-1,2,3,4-tetrahydroisoquinolin-6-yl)oxy)pentyl)piperazin-1-yl)nicotinamide], the “AR Dmax” value is recorded as “B (50 <= B < 75)” and the DC50 was in the range of 1 to 10 nM.

On to `CC1(C)[C@H](NC(=O)c2ccc(N3CCN(CCCCCOc4ccn5c(=O)n(C6CCC(=O)NC6=O)nc5c4)CC3)nc2)C(C)(C)[C@H]1Oc1ccc(C#N)c(Cl)c1` (mixture of isomers) [compound 48, N-((1r,3r)-3-(3-chloro-4-cyanophenoxy)-2,2,4,4-tetramethylcyclobutyl)-6-(4-(5-((2-(2,6-dioxopiperidin-3-yl)-3-oxo-2,3-dihydro-[1,2,4]triazolo[4,3-a]pyridin-7-yl)oxy)pentyl)piperazin-1-yl)nicotinamide], for which the “AR Dmax” value is listed as “B (50 <= B < 75)” and the DC50 was below 1 nM.

As to `CC1(C)[C@H](NC(=O)c2ccc(N3CCN(CCCCCOc4ccc5nn(C6CCC(=O)NC6=O)c(=O)n5c4)CC3)nc2)C(C)(C)[C@H]1Oc1ccc(C#N)c(Cl)c1` (mixture of isomers) [compound 49, N-((1r,3r)-3-(3-chloro-4-cyanophenoxy)-2,2,4,4-tetramethylcyclobutyl)-6-(4-(5-((2-(2,6-dioxopiperidin-3-yl)-3-oxo-2,3-dihydro-[1,2,4]triazolo[4,3-a]pyridin-6-yl)oxy)pentyl)piperazin-1-yl)nicotinamide], the “AR Dmax” value is given as “A (A >= 75)” and the DC50 was below 1 nM.

`CC1(C)[C@H](NC(=O)c2ccc(N3CCC(CN4CCN(c5ccn6c(=O)n(C7CCC(=O)NC7=O)nc6c5)CC4)CC3)cc2)C(C)(C)[C@H]1Oc1ccc(C#N)c(Cl)c1` (mixture of isomers) [compound 50, N-((1r,3r)-3-(3-chloro-4-cyanophenoxy)-2,2,4,4-tetramethylcyclobutyl)-4-(4-((4-(2-(2,6-dioxopiperidin-3-yl)-3-oxo-2,3-dihydro-[1,2,4]triazolo[4,3-a]pyridin-7-yl)piperazin-1-yl)methyl)piperidin-1-yl)benzamide]: the “AR Dmax” value is on record as “A (A >= 75)” and the DC50 is below 1 nM.

Turning to `CC1(C)[C@H](NC(=O)c2ccc(N3CCC(CCN4CCN(c5cc6c(cn5)C(=O)N(C5CCC(=O)NC5=O)C6=O)CC4)CC3)cc2)C(C)(C)[C@H]1Oc1ccc(C#N)c(Cl)c1` (mixture of isomers) [compound 51, rac-N-((1r,3r)-3-(3-chloro-4-cyanophenoxy)-2,2,4,4-tetramethylcyclobutyl)-4-(4-(2-(4-(2-(2,6-dioxopiperidin-3-yl)-1,3-dioxo-2,3-dihydro-1H-pyrrolo[3,4-c]pyridin-6-yl)piperazin-1-yl)ethyl)piperidin-1-yl)benzamide], the “AR Dmax” value was “A (A >= 75)” and the DC50 is below 1 nM.

The values above are taken from patent US12239711B2, “Cereblon ligands and bifunctional compounds comprising the same” (Arvinas Operations, Inc., priority 2014, dated 2025).
